In patent US8471015B2, “Process for producing a green fluorescent protein comprising coelenteramide or an analog thereof” (JNC Corporation, priority 2009, dated 2013):
Where two headings read alike, the source gives them in different places.

Assays:
apoaequorin = biological target: T1, apoaequorin (Aequorea victoria, UniProt P07164); format: biochemical
T1 construct: OmpA signal peptide (N, cleaved yes); made in house; host or cells: Escherichia coli strain WA802
Method: Apoaequorin (0.5 mg, 22 nmol) was mixed with 10 μl of coelenteramide (1.2 μg/μl, 29 nmol, in anhydrous methanol) in 1 ml of 50 mM Tris-HCl (pH 7.6) containing 10 mM CaCl2 and 1 mM DTT. […] Subsequently, syn-BFP was treated at 4° C., 5,000×g for 20 minutes using centrifugal concentrator Vivaspin 2 (10,000 MWCO, Sartorius AG, Germany) to concentrate the mixture to 0.1 ml.
Regarding the production of synthetic gFP (syn-gFP) from apoaequorin and coelenteramide, apoaequorin (0.5 mg, 22 nmol) was mixed with 10 μl of coelenteramide (1.2 μg/μl, 29 nmol, in anhydrous methanol) in 1 ml of 50 mM Tris-HCl (pH 7.6) containing 10 mM EDTA and 1 mM DTT. […]
Absorption spectra were measured at 25° C. with a Jasco (Tokyo, Japan) V-560 spectrophotometer (bandwidth: 0.5 nm, response, medium; scan speed, 100 nm/min.) using a quartz cuvette (10 mm light path). Also, fluorescence spectra were measured on a Jasco FP-6500 fluorescence spectrophotometer (emission/excitation bandwidth: 3 nm, response: 0.5 sec., scan speed: 1000 nm/min.).

T1 sequence (P07164 other isoform, or with tags, fused parts or gaps with the stated changes): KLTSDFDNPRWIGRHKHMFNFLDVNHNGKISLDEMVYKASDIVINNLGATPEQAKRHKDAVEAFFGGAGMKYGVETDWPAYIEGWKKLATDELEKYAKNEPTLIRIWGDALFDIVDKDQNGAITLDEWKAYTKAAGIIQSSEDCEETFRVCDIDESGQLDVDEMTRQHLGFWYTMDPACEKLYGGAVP

Row | SMILES | Fluorescence intensity (rlu) (excited at 332 nm) (apoaequorin; 10 mM Ca^2+ (Imax, 465 nm), +DTT, 0 hr) | Fluorescence intensity (rlu) (excited at 332 nm) (apoaequorin; 10 mM Ca^2+ (Imax, 465 nm), +DTT, 0.5 hr) | Fluorescence intensity (rlu) (excited at 332 nm) (apoaequorin; 10 mM Ca^2+ (Imax, 465 nm), +DTT, 16 hrs) | Fluorescence intensity (rlu) (excited at 332 nm) (apoaequorin; 10 mM Ca^2+ (Imax, 465 nm), -DTT series, then +DTT, 24 hrs) | Fluorescence intensity (rlu) (excited at 332 nm) (apoaequorin; 10 mM Ca^2+ (Imax, 465 nm), -DTT, 0 hr) | Fluorescence intensity (rlu) (excited at 332 nm) (apoaequorin; 10 mM Ca^2+ (Imax, 465 nm), -DTT, 16 hrs) | Fluorescence intensity (rlu) (excited at 332 nm) (apoaequorin; 10 mM EDTA (Imax, 469.5 nm), +DTT, 0 hr) | Fluorescence intensity (rlu) (excited at 332 nm) (apoaequorin; 10 mM EDTA (Imax, 469.5 nm), +DTT, 0.5 hr) | Fluorescence intensity (rlu) (excited at 332 nm) (apoaequorin; 10 mM EDTA (Imax, 469.5 nm), +DTT, 16 hrs) | Fluorescence intensity (rlu) (excited at 332 nm) (apoaequorin; 10 mM EDTA (Imax, 469.5 nm), -DTT series, then +DTT, 24 hrs) | Fluorescence intensity (rlu) (excited at 332 nm) (apoaequorin; 10 mM EDTA (Imax, 469.5 nm), -DTT, 0 hr) | Fluorescence intensity (rlu) (excited at 332 nm) (apoaequorin; 10 mM EDTA (Imax, 469.5 nm), -DTT, 16 hrs) | melting point
1 | O=C(Cc1ccc(O)cc1)Nc1ncc(-c2ccc(O)cc2)nc1Cc1ccccc1 [Coelenteramide, coelenteramide] | 25.4 rlu | 28.4 rlu | 29.5 rlu | 22.0 rlu | 9.8 rlu | 11.3 rlu | 20.2 rlu | 22.7 rlu | 23.1 rlu | 24.3 rlu | 14.8 rlu | 18.7 rlu | –
2 | COc1ccc(CC(=O)Nc2ncc(-c3ccc(OC)cc3)nc2Cc2ccccc2)cc1 [IV, coelenteramide dimethyl ether] | – | – | – | – | – | – | – | – | – | – | – | – | 189.5 to 191 °C
